“Also recorded” adds a separate entry of the source. Each block holds one compound with its values, some of them ahead of it.
Legend:
[1] = system: both antisera (against d,l-propranolol and l-propranolol); experiment: Competition with 3H-propranolol for binding, results stated once for both antisera; design: species or system rabbit; conditions: for recognition / cross-reaction / interference: in words; for inhibition of 3H-propranolol binding: at 100 ng
Method: (§1) New Zealand albino rabbits were immunized with propranolol-BSA immunogens once a week for 4 weeks and then once every 2 to 4 weeks. The immunogen was dissolved in phosphate-buffered saline (pH 7.4)
(§2) and emulsified with an equal amount of complete Freund's adjuvant. One ml. of emulsion containing 500 μg of immunogen was injected into four foot pads and intramuscularly into both thighs. Bleedings were taken from the central ear artery 6 to 8 days after the third booster injection. Blood was allowed to clot overnight at 4° C. and centrifuged at 2,000 rpm for 15 mintues to separate serum.
(§3) Antisera were diluted in a 2.5% solution of normal rabbit serum in 1:10 phosphate buffered saline. 0.4 ml. of this mixture was added to the assay tubes (10 × 75 mm). 10 μ1. of unknown or standard solutions were added to the tubes. 0.1 ml. of radioactive, d,l-propranolol solution containing 60 pg. (approximately 2,500 cpm) for antiserum against […] and 120 pg. (approximately 5,000 cpm) for antiserum against l-propranolol was subsequently added. The tubes were incubated overnight at 4° C. Antibody bound propranolol was separated by the addition of 0.5 ml. of saturated ammonium sulfate. The pellet was washed once with 0.8 ml. of 50% saturated ammonium sulfate, then dissolved in 0.5 ml. of water and transferred into a counting vial. The tube was washed twice with 3 ml. of Riafluor. Another portion of 6 ml. Riafluor was added to the vial to give a total volume of 12 ml., and the radioactivity was counted in a scintillation counter. The dilutions of the antisera used were 1:10,000 and 1:1000 respectively against d,l-propranolol and l-propranolol.
(§4) The sensitivity of radioimmunoassay for d,l-propranolol and its l-isomer in phosphate-buffered saline and serum were determined.
(§5) ID50 refers to the amount of the compound required to produce 50% inhibition of ^3 H-propranolol-antibody complex formation.

[2] = system: antiserum against l-propranolol; experiment: Competition with 3H-propranolol for binding to antiserum against l-propranolol (radioimmunoassay specificity); design: species or system rabbit; conditions: for inhibition of 3H-propranolol binding: at 100 ng
Method: as §1, §2, §3, §4, §5

[3] = system: antiserum against d,l-propranolol; experiment: Competition with 3H-propranolol for binding to antiserum against d,l-propranolol (radioimmunoassay specificity); design: species or system rabbit; conditions: for inhibition of 3H-propranolol binding: at 100 ng; for recognition by antiserum against d,l-propranolol: d- versus l-propranolol
Method: as §1, §2, §3, §4, §5

[4] = Disposition of propranolol in rats: serum/blood levels by radioimmunoassay; conditions: rat; for half-life: blood, iv, 1 mg/kg; for disposition in blood: 1 mg/kg racemic propranolol i.v., in words
[5] = Disposition of propranolol in rats: heart levels by radioimmunoassay; conditions: rat, heart, iv, 1 mg/kg
[6] = system: rat heart; experiment: as above; conditions: 1 mg/kg d,l-propranolol i.v.
[7] = system: heart rate increase caused by isoproterenol; experiment: Inhibition by propranolol of heart rate increase caused by isoproterenol in anesthetized rats; format: in vivo; conditions: rat, 1 mg/kg i.v.
Text: Increase in heart rate in response to isoproterenol 0.5 g/kg i.v. was compared beforeand at varying time after the administration of propranolol.

[8] = rat, in vivo, iv, 1 mg/kg
[9] = antiserum against l-propranolol

inhibition of 3H-propranolol binding ([2]; anti-l-propranolol antiserum): 25%
inhibition of 3H-propranolol binding ([3]; anti-d,l-propranolol antiserum): 10%
SMILES: O=C(O)COc1cccc2ccccc12 [1-naphthoxy acetic acid]
concentration needed for interference with the assay ([1]; both antisera): at least 1,000 times greater

SMILES: CC(C)NC[C@H](O)COc1cccc2ccccc12 [l-propranolol]
half-life [4]: 52 min
half-life relative to d-isomer ([4]; 1 mg/kg d,l-propranolol i.v.): almost twice that of the d-isomer
selectivity of antiserum against l-propranolol ([2]; l-propranolol versus d-isomer): able to discriminate the l-propranolol selectively; also recorded: more selectively than the d-isomer
recognition by antiserum against d,l-propranolol [3]: to the same degree
half-life [5]: 62 min
decline in heart compared with blood ([6]; after half an hour): almost parallel to that found in the blood
heart uptake / presence in heart ([6]; in words, 1 mg/kg): rapid accumulation of l-propranolol by the heart; also recorded: stereospecific uptake of l-propranolol by the rat heart; also recorded: only l-propranolol could be found in the heart

inhibition of 3H-propranolol binding ([3]; anti-d,l-propranolol antiserum): 45%
SMILES: CC(C)NCC(O)c1ccc2ccccc2c1 (stereo not drawn) [pronethalol]
recognition / cross-reaction / interference ([1]; both antisera): not significant recognized by either antisera

SMILES: NCCc1ccc(O)c(O)c1 [dopamine]
inhibition of 3H-propranolol binding [1]: no inhibition

SMILES: CC(C)NCC(O)COc1cccc2ccccc12 (racemic) [propranolol]
disposition in blood [4]: declines rapidly in the blood following the injection
time by which effect on heart rate disappeared [7]: ≤ 90 min
suppression of increase in heart rate due to isoproterenol ([7]; first 30 minutes after administration): markedly suppressed

SMILES: CC(C)N [isopropylamine]
inhibition of 3H-propranolol binding [1]: no inhibition
concentration needed for interference with the assay ([1]; both antisera): at least 1,000 times greater

SMILES: CC(C)NCC(O)c1ccc(Cl)c(Cl)c1 (stereo not drawn) [dichloroisoproterenol]
recognition / cross-reaction / interference ([1]; both antisera): not significant recognized by either antisera
inhibition of 3H-propranolol binding ([2]; anti-l-propranolol antiserum): no inhibition
inhibition of 3H-propranolol binding ([3]; anti-d,l-propranolol antiserum): 13%

inhibition of 3H-propranolol binding ([2]; anti-l-propranolol antiserum): 45%
inhibition of 3H-propranolol binding ([3]; anti-d,l-propranolol antiserum): 25%
SMILES: Oc1cccc2ccccc12 [1-naphthol]
concentration needed for interference with the assay ([1]; both antisera): at least 1,000 times greater

concentration needed for recognition by the l-antibody [2, 9]: ≥ 35 times greater
concentration needed for recognition by the d,l-antibody ([3]; antiserum against d,l-propranolol): ≥ 70 times greater
SMILES: CC(C)NCC(O)COc1ccc(O)c2ccccc12 (stereo not drawn) [4-hydroxy-propranolol]

SMILES: NCC(O)c1ccc(O)c(O)c1 (stereo not drawn) [norepinephrine]
inhibition of 3H-propranolol binding [1]: no inhibition

SMILES: CC(C)NC[C@@H](O)COc1cccc2ccccc12 [d-propranolol]
initial blood level relative to l-propranolol [8]: three times higher
half-life [4]: 23.8 min
disposition in blood [4]: remains in the blood and is metabolized rapidly
amount of l-form as which 100 pg of the d isomer is recognized by the l-antibody ([2]; 100 pg of d isomer): 7 pg
ID50 and 95% confidence limits ([2]; anti-l-propranolol antiserum, amount for 50% inhibition of 3H-propranolol-antibody complex formation, 95% confidence limits in parentheses): 1656 pg
ID50 relative to that for l-propranolol [2, 9]: 14 times
ID50 and 95% confidence limits ([3]; anti-d,l-propranolol antiserum, amount for 50% inhibition of 3H-propranolol-antibody complex formation, 95% confidence limits in parentheses): 314 pg
recognition by antiserum against d,l-propranolol [3]: to the same degree

SMILES: CC(C)NCC(O)c1ccc(O)c(O)c1 (stereo not drawn) [isoproterenol]
inhibition of 3H-propranolol binding [1]: no inhibition
recognition / cross-reaction / interference ([1]; both antisera): no cross-reaction

SMILES: Oc1ccc(O)c2ccccc12 [1,4-naphthalene-diol]
concentration needed for interference with the assay ([1]; both antisera): at least 1,000 times greater
inhibition of 3H-propranolol binding ([2]; anti-l-propranolol antiserum): 17%
inhibition of 3H-propranolol binding ([3]; anti-d,l-propranolol antiserum): no inhibition

SMILES: OCC(O)COc1cccc2ccccc12 (stereo not drawn) [propranolol glycol, 1-(1-naphthoxy)-2,3-propylene glycol]
ID50 relative to values for l-propranolol and d,l-propranolol ([1]; both antisera): 9-14 times

SMILES: CNCC(O)c1ccc(O)c(O)c1 (stereo not drawn) [epinephrine]
inhibition of 3H-propranolol binding [1]: no inhibition

Source: patent publication US4070492A, “Propranolol assay” (priority 1977, dated 1978)
